Measurements published in patent US10660877B2 (BRISTOL-MYERS SQUIBB COMPANY, priority 2016, dated 2020).
Read-outs that look alike come from different tables or passages of the source.

Assays:
[1] = target: human TLR9 (Homo sapiens (Human), UniProt Q9NR96); experiment: TLR9 inhibition reporter assay (HEK-Blue cells, SEAP reporter, ODN2006 stimulation);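 note: compounds tested over 0.05 nM to 50 µM, 22 h incubation, inhibition taken as SEAP signal drop from agonist plus DMSO wells toward a known inhibitor control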
Description: TLR7/8/9 Inhibition Reporter Assays
Briefly, cells are seeded into Greiner 384 well plates (15000 cells per well for TLR7, 20,000 for TLR8 and 25,000 for TLR9) and then treated with test compounds in DMSO to yield a final dose response concentration range of 0.05 nM-50 μM. […] After a 22 hour incubation at 37° C., 5% CO2, SEAP levels are determined with the addition of HEK-Blue™ Detection reagent (Invivogen), a cell culture medium that allows for detection of SEAP, according to manufacturer's specifications. The percent inhibition is determined as the % reduction in the HEK-Blue signal present in wells treated with agonist plus DMSO alone compared to wells treated with a known inhibitor.

[2] = target: human TLR7 (Homo sapiens (Human), UniProt Q9NYK1); experiment: TLR7 inhibition reporter assay (HEK-Blue cells, SEAP reporter, gardiquimod stimulation); type: cell-based
[3] = target: human TLR8 (Homo sapiens (Human), UniProt Q9NR97); experiment: TLR8 inhibition reporter assay (HEK-Blue cells, SEAP reporter, R848 stimulation);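 note: compounds tested from 0.05 nM to 50 µM, 22 h at 37 °C, SEAP measured with HEK-Blue Detection, inhibition relative to agonist plus DMSO versus a known inhibitor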
[4] = test system: TLR7; experiment: In vivo mouse TLR7 PD model (gardiquimod challenge, plasma IL-6); set-up: species or system C57BL/6 mice; details: oral
Description: In Vivo Mouse TLR7 and TLR9 PD Model:
Adult male C57BL/6 mice were used for the experiments. Mice (7 to 10 per group) were randomized into different treatment groups based on body weight. Mice from the respective treatment groups were administered orally with vehicle or test compound. Thirty min after the oral administration of vehicle or test compound, mice were challenged with intraperitoneal injection of gardiquimod for TLR7 PD model and CpG-ODN for TLR9 PD model. Ninety minutes after gardiquimod injection and 120 minutes after CpG-ODN injection, mice were bled under isoflurane anaesthesia and plasma IL-6 level was estimated by using commercially available ELISA kit (BD Biosciences). At the end of experiment, mean cytokine data was plotted and one way ANOVA with Dunnett's test was performed to calculate the significance of test compound treated group vs. vehicle control group. Percent inhibition of cytokine induction was calculated for test compound treated group vs vehicle control group.

[5] = read-out: TLR9 IC50, HEK-Blue cells overexpressing human TLR9, ODN2006 5 nM
[6] = HEK-Blue cells overexpressing human TLR7, gardiquimod 7.5 μM
[7] = read-out: TLR8 IC50, HEK-Blue cells overexpressing human TLR8, R848 15.9 μM
[8] = TLR9 IC50, HEK-Blue cells overexpressing human TLR9, ODN2006 5 nM
[9] = TLR8 IC50, HEK-Blue cells overexpressing human TLR8, R848 15.9 μM

Sequence of human TLR7 (Q9NYK1 27-1049): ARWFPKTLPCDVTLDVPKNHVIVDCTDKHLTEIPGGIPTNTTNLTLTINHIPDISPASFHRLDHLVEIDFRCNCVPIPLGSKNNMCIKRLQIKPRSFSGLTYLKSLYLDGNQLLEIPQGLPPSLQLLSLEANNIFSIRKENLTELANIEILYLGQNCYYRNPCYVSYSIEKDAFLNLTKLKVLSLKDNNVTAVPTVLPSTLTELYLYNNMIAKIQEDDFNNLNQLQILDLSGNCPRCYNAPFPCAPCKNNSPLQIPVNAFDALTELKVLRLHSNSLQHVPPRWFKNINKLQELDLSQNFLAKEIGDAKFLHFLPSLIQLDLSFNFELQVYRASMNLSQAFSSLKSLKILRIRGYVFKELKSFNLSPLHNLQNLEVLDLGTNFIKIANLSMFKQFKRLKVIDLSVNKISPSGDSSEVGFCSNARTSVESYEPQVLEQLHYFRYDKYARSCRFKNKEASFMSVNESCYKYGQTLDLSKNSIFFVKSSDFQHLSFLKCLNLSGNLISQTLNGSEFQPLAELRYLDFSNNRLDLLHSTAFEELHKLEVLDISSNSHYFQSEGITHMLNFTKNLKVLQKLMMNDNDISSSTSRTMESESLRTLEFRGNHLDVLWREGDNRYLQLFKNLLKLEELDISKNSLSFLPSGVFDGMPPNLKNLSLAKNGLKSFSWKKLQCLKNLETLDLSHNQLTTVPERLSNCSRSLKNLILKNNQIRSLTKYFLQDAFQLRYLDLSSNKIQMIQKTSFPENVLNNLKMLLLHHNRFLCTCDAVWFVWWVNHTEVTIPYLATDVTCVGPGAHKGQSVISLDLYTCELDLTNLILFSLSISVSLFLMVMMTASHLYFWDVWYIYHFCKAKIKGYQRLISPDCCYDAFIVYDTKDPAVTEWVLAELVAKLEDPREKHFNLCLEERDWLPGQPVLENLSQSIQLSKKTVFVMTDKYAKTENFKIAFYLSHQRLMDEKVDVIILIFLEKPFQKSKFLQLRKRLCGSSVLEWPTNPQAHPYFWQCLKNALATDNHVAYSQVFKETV
Sequence of human TLR8 (Q9NR97 27-1041): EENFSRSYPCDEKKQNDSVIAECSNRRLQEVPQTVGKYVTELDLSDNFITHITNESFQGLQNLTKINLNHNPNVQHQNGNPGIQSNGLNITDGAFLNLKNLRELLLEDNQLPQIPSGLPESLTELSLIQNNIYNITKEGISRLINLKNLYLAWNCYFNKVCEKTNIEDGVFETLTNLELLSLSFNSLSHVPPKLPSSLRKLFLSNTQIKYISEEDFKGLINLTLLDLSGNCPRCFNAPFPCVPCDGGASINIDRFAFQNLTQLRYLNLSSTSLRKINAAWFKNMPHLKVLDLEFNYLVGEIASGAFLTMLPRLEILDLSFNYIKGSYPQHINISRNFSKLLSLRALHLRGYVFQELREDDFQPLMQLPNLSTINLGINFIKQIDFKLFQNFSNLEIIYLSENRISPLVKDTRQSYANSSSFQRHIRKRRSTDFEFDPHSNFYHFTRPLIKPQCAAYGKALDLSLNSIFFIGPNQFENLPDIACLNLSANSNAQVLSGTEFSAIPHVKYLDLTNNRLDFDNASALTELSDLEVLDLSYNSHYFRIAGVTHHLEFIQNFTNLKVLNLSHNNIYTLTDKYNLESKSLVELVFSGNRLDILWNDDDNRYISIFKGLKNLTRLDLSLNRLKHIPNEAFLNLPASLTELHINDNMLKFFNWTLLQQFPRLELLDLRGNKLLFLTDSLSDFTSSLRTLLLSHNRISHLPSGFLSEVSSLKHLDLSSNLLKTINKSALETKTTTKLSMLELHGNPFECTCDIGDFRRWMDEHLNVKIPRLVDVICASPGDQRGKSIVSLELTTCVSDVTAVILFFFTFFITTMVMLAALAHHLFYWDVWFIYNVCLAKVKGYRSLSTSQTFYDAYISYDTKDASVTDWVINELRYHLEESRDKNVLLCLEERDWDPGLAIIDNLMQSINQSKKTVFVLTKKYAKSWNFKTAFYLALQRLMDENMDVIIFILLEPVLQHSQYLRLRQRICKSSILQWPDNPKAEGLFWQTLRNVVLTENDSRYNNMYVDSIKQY
Sequence of human TLR9 (Q9NR96 26-1032): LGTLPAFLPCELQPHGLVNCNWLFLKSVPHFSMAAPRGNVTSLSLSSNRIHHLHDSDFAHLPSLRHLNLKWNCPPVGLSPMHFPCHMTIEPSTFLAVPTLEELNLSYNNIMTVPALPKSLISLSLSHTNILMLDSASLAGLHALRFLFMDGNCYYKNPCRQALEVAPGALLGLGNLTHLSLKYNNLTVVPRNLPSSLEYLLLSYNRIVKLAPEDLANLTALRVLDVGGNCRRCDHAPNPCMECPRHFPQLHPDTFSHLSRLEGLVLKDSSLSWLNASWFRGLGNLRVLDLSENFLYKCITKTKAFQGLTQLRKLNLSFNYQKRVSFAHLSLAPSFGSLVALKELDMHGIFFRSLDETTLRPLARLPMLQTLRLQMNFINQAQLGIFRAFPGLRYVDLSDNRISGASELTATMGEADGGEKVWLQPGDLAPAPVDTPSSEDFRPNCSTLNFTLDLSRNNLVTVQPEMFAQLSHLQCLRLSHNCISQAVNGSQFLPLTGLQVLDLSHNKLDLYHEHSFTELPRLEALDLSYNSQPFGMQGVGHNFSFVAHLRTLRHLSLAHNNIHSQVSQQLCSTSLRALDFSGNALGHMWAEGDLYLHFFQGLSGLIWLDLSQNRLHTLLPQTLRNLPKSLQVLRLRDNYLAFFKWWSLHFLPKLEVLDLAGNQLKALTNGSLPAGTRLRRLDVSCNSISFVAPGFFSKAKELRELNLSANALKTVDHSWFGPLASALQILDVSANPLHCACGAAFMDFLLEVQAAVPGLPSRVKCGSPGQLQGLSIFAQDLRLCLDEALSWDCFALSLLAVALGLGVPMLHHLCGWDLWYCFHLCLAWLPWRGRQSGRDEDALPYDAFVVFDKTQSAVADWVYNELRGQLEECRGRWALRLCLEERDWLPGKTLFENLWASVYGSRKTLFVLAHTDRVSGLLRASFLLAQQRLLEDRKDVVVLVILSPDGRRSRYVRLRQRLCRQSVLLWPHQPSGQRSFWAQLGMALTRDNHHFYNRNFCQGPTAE

IC50 [1, 5]	IC50 [2, 6]	IC50 [3, 7]	SMILES	other results
> 50000 nM	55.8 nM	16 nM	Cc1cc(-c2[nH]c3ccc(C4CCN(Cc5ncco5)CC4)cc3c2C(C)C)c(F)cn1 [Example 700, 2-((4-(2-(5-fluoro-2-methylpyridin-4-yl)-3-isopropyl-1H-indol-5-yl)piperidin-1-yl)methyl)oxazole]	
6190 nM	12.1 nM	2 nM	Cc1cc(-c2[nH]c3ccc(C4CCN(Cc5cncs5)CC4)cc3c2C(C)C)c(F)cn1 [Example 688, 5-((4-(2-(5-fluoro-2-methylpyridin-4-yl)-3-isopropyl-1H-indol-5-yl)piperidin-1-yl)methyl)thiazole]	
3040 nM	2.6 nM	6.2 nM	Cc1cc(-c2[nH]c3ccc(C4CCN(C(=O)CN(C)C)CC4)cc3c2C(C)C)c(F)cn1 [Example 586, 2-(dimethylamino)-1-(4-(2-(5-fluoro-2-methylpyridin-4-yl)-3-isopropyl-1H-indol-5-yl)piperidin-1-yl)ethan-1-one]	
217 nM	7.6 nM	2.8 nM	Cc1cc(-c2[nH]c3ccc(C4CCN(C5CCCN(C(C)C)C5)CC4)cc3c2C(C)C)ccn1 (stereo not shown) [Example 707, 3-isopropyl-5-(1′-isopropyl-[1,3′-bipiperidin]-4-yl)-2-(2-methylpyridin-4-yl)-1H-indole]	
31600 nM	74.2 nM	84.3 nM	Cc1cc(-c2[nH]c3ccc(C4CCN(S(=O)(=O)c5cn(C)c(C)n5)CC4)cc3c2C(C)C)ccn1 [Example 553, 5-(1-((1,2-dimethyl-1H-imidazol-4-yl)sulfonyl)piperidin-4-yl)-3-isopropyl-2-(2-methylpyridin-4-yl)-1H-indole]	
210 nM	5.3 nM	2.3 nM	Cc1cc(-c2[nH]c3ccc(C4CCN(Cc5cnn(C)c5)CC4)cc3c2C(C)C)cc(C)n1 [Example 440, 2-(2,6-dimethylpyridin-4-yl)-3-isopropyl-5-(1-((1-methyl-1H-pyrazol-4-yl)methyl)piperidin-4-yl)-1H-indole]	
142 nM	4.2 nM	18.4 nM	Cc1cc(-c2[nH]c3ccc(C4CCN(C(=O)CN(C)C)CC4)cc3c2C2CC2)cc(C)n1 [Example 590, 1-(4-(3-cyclopropyl-2-(2,6-dimethylpyridin-4-yl)-1H-indol-5-yl)piperidin-1-yl)-2-(dimethylamino)ethan-1-one]	
221 nM	2.6 nM	1.9 nM	Cc1cc(-c2[nH]c3ccc(C4CCN(CCCN(C)C)CC4)cc3c2C(C)C)ccn1 [Example 669, 3-(4-(3-isopropyl-2-(2-methylpyridin-4-yl)-1H-indol-5-yl)piperidin-1-yl)-N,N-dimethylpropan-1-amine]	
180 nM	1670 nM	360 nM	COc1nccc(-c2[nH]c3ccc(C4CCN(C5CCN(CC(C)C)CC5)CC4)cc3c2C)c1OC [Example 799, 2-(2,3-dimethoxypyridin-4-yl)-5-(1′-isobutyl-[1,4′-bipiperidin]-4-yl)-3-methyl-1H-indole]	
45400 nM	63.8 nM	660 nM	Cc1cc(-c2[nH]c3ccc(C4CCN(C(=O)C5CC(=O)N(C)C5)CC4)cc3c2CC(F)F)cc(C)n1 (stereo not shown) [Example 534, 4-(4-(3-(2,2-difluoroethyl)-2-(2,6-dimethylpyridin-4-yl)-1H-indol-5-yl)piperidine-1-carbonyl)-1-methylpyrrolidin-2-one]	

Further lines, the compound ahead of its results:

SMILES	IC50 [1, 5]	IC50 [2, 6]	IC50 [3, 7]	other results
CNC(=O)CN1CCC(c2ccc3[nH]c(-c4cc(C)nc(C)c4)c(C(C)C)c3c2)CC1 [Example 309, 2-(4-(2-(2,6-dimethylpyridin-4-yl)-3-isopropyl-1H-indol-5-yl)piperidin-1-yl)-N-methylacetamide]	789 nM	2 nM	5.5 nM	% inhibition of IL6 ([4]; 0.0005 mg/kg): 12%; % inhibition of IL6 ([4]; 0.005 mg/kg): 65%; % inhibition of IL6 ([4]; 0.05 mg/kg): 89%; % inhibition of IL6 ([4]; 0.25 mg/kg): 91%
CC(C)c1c(-c2ccnc(N)c2)[nH]c2ccc(C3CCN(Cc4cnc[nH]4)CC3)cc12 [Example 817, 4-(5-(1-((1H-imidazol-5-yl)methyl)piperidin-4-yl)-3-isopropyl-1H-indol-2-yl)pyridin-2-amine]				IC50 ([1]; read-out: TLR9 IC50, HEK-Blue cells, ODN2006 5 nM): 177 nM; IC50 ([2]; HEK-Blue cells, gardiquimod 7.5 μM): 224 nM; IC50 ([3]; read-out: TLR8 IC50, HEK-Blue cells, R848 15.9 μM): 56 nM
Cc1cc(-c2[nH]c3ccc(C4CCN(C(=O)CNCC(C)C)CC4)cc3c2C(C)C)cc(C)n1 [Example 338, 1-(4-(2-(2,6-dimethylpyridin-4-yl)-3-isopropyl-1H-indol-5-yl)piperidin-1-yl)-2-(isobutylamino)ethan-1-one]	553 nM	5.8 nM	23.5 nM	
Cc1c(-c2[nH]c3ccc(C4CCNCC4)cc3c2C(C)C)ccnc1Cl [Example 35, 2-(2-chloro-3-methylpyridin-4-yl)-3-isopropyl-5-(piperidin-4-yl)-1H-indole]	4080 nM	26.7 nM	28.8 nM	
Cc1cc(-c2[nH]c3ccc(C4CCN(C(=O)CNCCC(C)C)CC4)cc3c2C(C)C)cc(C)n1 [Example 393, 1-(4-(2-(2,6-dimethylpyridin-4-yl)-3-isopropyl-1H-indol-5-yl)piperidin-1-yl)-2-(isopentylamino)ethan-1-one]		7.9 nM		IC50 [1, 8]: 800 nM; IC50 [3, 9]: 37.8 nM
CC(C)c1c(-c2cc(F)ncc2Cl)[nH]c2ccc(C3CCNCC3)cc12 [Example 18, 2-(5-chloro-2-fluoropyridin-4-yl)-3-isopropyl-5-(piperidin-4-yl)-1H-indole]	6270 nM	177 nM	47 nM	
CCC(CC)C(=O)N1CCC(c2ccc3[nH]c(-c4cc(C)nc(C)c4)c(C(C)C)c3c2)CC1 [Example 104, 1-(4-(2-(2,6-dimethylpyridin-4-yl)-3-isopropyl-1H-indol-5-yl)piperidin-1-yl)-2-ethylbutan-1-one]	12000 nM	14.9 nM	249 nM	
Cc1cc(-c2[nH]c3ccc(C4CCN(C(=O)C5CCN(C)CC5)CC4)cc3c2C(C)C)cc(C)n1 [Example 110, (4-(2-(2,6-dimethylpyridin-4-yl)-3-isopropyl-1H-indol-5-yl)piperidin-1-yl)(1-methylpiperidin-4-yl)methanone]		3.9 nM		IC50 [1, 8]: 385 nM; IC50 [3, 9]: 8.1 nM
Cc1cc(-c2[nH]c3ccc(C4CCN(C(=O)CN5CCN(C)CC5)CC4)cc3c2C(C)C)cc(C)n1 [Example 163, 1-(4-(2-(2,6-dimethylpyridin-4-yl)-3-isopropyl-1H-indol-5-yl)piperidin-1-yl)-2-(4-methylpiperazin-1-yl)ethan-1-one]	778 nM	0.9 nM	8.4 nM	
Cc1cc(-c2[nH]c3ccc(C4CCN(C(=O)CN(C)C5CC5)CC4)cc3c2C(C)C)cc(C)n1 [Example 357, 2-(cyclopropyl(methyl)amino)-1-(4-(2-(2,6-dimethylpyridin-4-yl)-3-isopropyl-1H-indol-5-yl)piperidin-1-yl)ethan-1-one]	2350 nM	13.9 nM	104 nM	
CCc1c(-c2ccnc(Cl)c2)[nH]c2ccc(C3CCNCC3)cc12 [Example 62, 2-(2-chloropyridin-4-yl)-3-ethyl-5-(piperidin-4-yl)-1H-indole]	2100 nM	22 nM	19.4 nM	
CCN(CC)CC(=O)N1CCC(c2ccc3[nH]c(-c4cc(C)nc(C)c4)c(C(C)C)c3c2)CC1 [Example 99, 2-(diethylamino)-1-(4-(2-(2,6-dimethylpyridin-4-yl)-3-isopropyl-1H-indol-5-yl)piperidin-1-yl)ethan-1-one]	497 nM	3.1 nM	13 nM	
Cc1cc(-c2[nH]c3ccc(C4CCN(C(=O)CN5CCCC(C)C5)CC4)cc3c2C(C)C)cc(C)n1 (stereo not shown) [Example 378, 1-(4-(2-(2,6-dimethylpyridin-4-yl)-3-isopropyl-1H-indol-5-yl)piperidin-1-yl)-2-(3-methylpiperidin-1-yl)ethan-1-one]	389 nM	1.7 nM	11.8 nM	
Cc1cc(-c2[nH]c3ccc(C4CCN(Cc5cccnc5)CC4)cc3c2C(C)C)cc(C)n1 [Example 433, 2-(2,6-dimethylpyridin-4-yl)-3-isopropyl-5-(1-(pyridin-3-ylmethyl)piperidin-4-yl)-1H-indole]		4.6 nM		IC50 [1, 8]: 234 nM; IC50 [3, 9]: 2.4 nM
Cc1cc(-c2[nH]c3ccc(C4CCN(CC(=O)NC5CC5)CC4)cc3c2C(C)C)cc(C)n1 [Example 212, N-cyclopropyl-2-(4-(2-(2,6-dimethylpyridin-4-yl)-3-isopropyl-1H-indol-5-yl)piperidin-1-yl)acetamide]	648 nM	3.1 nM	6.5 nM	
